Test system: 596521-263-R-J1-PDC complex spheroids, viability % of control
Assay: Anticancer human tumor 596521-263-R-J1-PDC patient-derived soft tissue sarcoma cell line growth inhibition [GQUAD]
Details: for IC50: curve of first compound; for viability, T/C: stronger effect = lower value
Summary of the method: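 Tumor cells were grown as complex spheroids with HUVEC endothelial cells and mesenchymal stem cells as stroma. G-quadruplex stabilizers were combined with targeted agents over half-log dilutions from near the clinical Cmax, or from 10 microM.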
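Note: spheroids exposed to drugs for 7 days before viability reading.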
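Throughout, for viability, T/C: 100% = DMSO vehicle control viability.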

## C#Cc1c(F)ccc2cc(O)cc(-c3ncc4c(N5CC6CCC(C5)N6)nc(OCC56CCCN5CC(F)C6)nc4c3F)c12 (configuration not stated) + CN(C)c1ccc(Nc2c3ccc(NC(=O)CCN4CCCC4)cc3nc3cc(NC(=O)CCN4CCCC4)ccc23)cc1
Second compound 0.0316 µM
  IC50: > 10 µM
Second compound 0.1 µM
  IC50: > 10 µM
Second compound 0.316 µM
  IC50: > 10 µM
Second compound 1 µM
  IC50: > 10 µM
Second compound 3.16 µM
  IC50: > 10 µM
Second compound 10 µM
  IC50: 4.15 µM
Second compound 0.0316 µM, first compound 0.0316 µM
  viability, T/C: 105%
Second compound 0.0316 µM, first compound 0.1 µM
  viability, T/C: 95.1%
Second compound 0.0316 µM, first compound 0.316 µM
  viability, T/C: 98.7%
Second compound 0.0316 µM, first compound 1 µM
  viability, T/C: 115%
Second compound 0.0316 µM, first compound 3.16 µM
  viability, T/C: 106%
Second compound 0.0316 µM, first compound 10 µM
  viability, T/C: 99.2%
Second compound 0.1 µM, first compound 0.0316 µM
  viability, T/C: 95.5%
Second compound 0.1 µM, first compound 0.1 µM
  viability, T/C: 96.1%
Second compound 0.1 µM, first compound 0.316 µM
  viability, T/C: 107%
Second compound 0.1 µM, first compound 1 µM
  viability, T/C: 108%
Second compound 0.1 µM, first compound 3.16 µM
  viability, T/C: 112%
Second compound 0.1 µM, first compound 10 µM
  viability, T/C: 92.3%
Second compound 0.316 µM, first compound 0.0316 µM
  viability, T/C: 103%
Second compound 0.316 µM, first compound 0.1 µM
  viability, T/C: 106%
Second compound 0.316 µM, first compound 0.316 µM
  viability, T/C: 98.5%
Second compound 0.316 µM, first compound 1 µM
  viability, T/C: 97.3%
Second compound 0.316 µM, first compound 3.16 µM
  viability, T/C: 104%
Second compound 0.316 µM, first compound 10 µM
  viability, T/C: 83.1%
Second compound 1 µM, first compound 0.0316 µM
  viability, T/C: 100%
Second compound 1 µM, first compound 0.1 µM
  viability, T/C: 111%
Second compound 1 µM, first compound 0.316 µM
  viability, T/C: 92.5%
Second compound 1 µM, first compound 1 µM
  viability, T/C: 88.6%
Second compound 1 µM, first compound 3.16 µM
  viability, T/C: 104%
Second compound 1 µM, first compound 10 µM
  viability, T/C: 96.8%
Second compound 3.16 µM, first compound 0.0316 µM
  viability, T/C: 87.4%
Second compound 3.16 µM, first compound 0.1 µM
  viability, T/C: 87.2%
Second compound 3.16 µM, first compound 0.316 µM
  viability, T/C: 98.7%
Second compound 3.16 µM, first compound 1 µM
  viability, T/C: 90.5%
Second compound 3.16 µM, first compound 3.16 µM
  viability, T/C: 86.6%
Second compound 3.16 µM, first compound 10 µM
  viability, T/C: 78.3%
Second compound 10 µM, first compound 0.0316 µM
  viability, T/C: 64.6%
Second compound 10 µM, first compound 0.1 µM
  viability, T/C: 66%
Second compound 10 µM, first compound 0.316 µM
  viability, T/C: 70.7%
Second compound 10 µM, first compound 1 µM
  viability, T/C: 64.2%
Second compound 10 µM, first compound 3.16 µM
  viability, T/C: 54.2%
Second compound 10 µM, first compound 10 µM
  viability, T/C: 36.8%
